The conditions of series [1]: cited from earlier work. As for the experimental part: The PBPK model well captured the PK in plasma, tissues, and tumor simultaneously. CLint was estimated with good precision (%CV = 8.92), and the optimized value was 137 mL/h. […] About 80% of MMAE excretes via feces, and only 6% excretes via urine. Therefore, we assumed that MMAE was eliminated only via metabolism and biliary/fecal excretion from the liver. […] For the derivation of CLint based on in vitro data, the CLint, vitro were estimated using human hepatocyte (3 µL/min/10^6 cells) and human ...

The next series concerns tumor cells. The experiment in a line: Cell-level tumor disposition model parameters. More on the design: species or system mice. The settings on record: Estimated by PBPK model. The text has this: Characterization and prediction of MMAE concentration at the site of action (i.e., tumor) is essential to establish a reliable exposure–efficacy relationship. Therefore, a cell-level tumor disposition model was incorporated in the MMAE PBPK model. […] Both pathways also depended on the vascular density and tumor size (Equation (20)). MMAE in the tumor extracellular space can influx into the tumor cell and bind to the tubulin. The tubulin-bound MMAE can dissociate from the target and efflux from tumor intracellular space into the extracellular space.
Physiological parameters for mice were obtained from our previously published PBPK model. Radius of the tumor blood capillary ( Rcap ), average distance between two capillaries ( Rkrough ), tumor void volume for MMAE ( ε ), P, D, and efflux rate of MMAE from the cells ( kout ) were obtained from the literature. […] The estimated parameters included (1) permeability coefficient ( PSi) in all tissues except the intestines, thymus, and other compartments for which observed data were not available, (2) intrinsic hepatic clearance ( CLint ), and (3) nonspecific uptake rate of MMAE into cancer cells ( kin) . The model was fitted to the data using the maximum likelihood estimation method in ADAPT version 5 (Biomedical Simulations Resource, University of Southern California, Los Angeles, CA, USA), using the variance model shown in Equation (23). […]

The test system of the next series is P-glycoprotein. The following applies: cited from earlier work. The text has this: Concentration data were not obtained for gastrointestinal tracts and thymus, and thus, an assumption was made when calculating KP values for these tissues based on the result of a quantitative whole-body autoradiography study of trastuzumab-vc-MMAE in rats. The study observed persistent MMAE radioactivity in tissues with rapidly dividing cells such as GI epithelia, bone marrow, spleen, and thymus. Accordingly, apparent KP in GI tracts and thymus were assumed to be the same as in spleen, and they were adjusted for the fractional cellular volume of each tissue. KP values were >1 in all tis ... || The PBPK model of MMAE presented here can further be used to assess drug–drug interactions of MMAE containing ADCs. In vivo and in vitro studies indicate that MMAE is a substrate of CYP3A and P-glycoprotein [34]. As such, the polymorphism of CYP3A and P-glycoprotein may affect the PK of MMAE, and consequently the efficacy and toxicity of MMAE-conjugated ADCs. As such, the MMAE PBPK model can serve as a tool to explore drug interactions of ADCs.

For series [2] the following is noted: cited from earlier work. On the procedure: There are some limitations of our study. First, only one dose level of MMAE was used to build the PBPK model. However, the current 0.1 mg/kg MMAE dose can be high enough to saturate the target, and thus, linear PK can be assumed. […] As more data at lower dose levels become available, the PBPK model can be further refined to elaborate the MMAE–tubulin interaction. Second, the PK profile of free M ...
This is another data set of the same source.

For series [3] the following is noted: following free MMAE administration; cited from earlier work. The text has this: Our results regarding the blood cell distribution of MMAE were not consistent with the literature. The MMAE blood-to-plasma ratio is reported to be 2 [4] and 1.53–8.65 [8] in different studies, following free MMAE administration. Whereas, a lower blood-to-plasma ratio has been observed when MMAE-conjugated ADCs were administrated.

SMILES strings stand for the structures. Read-outs that look alike come from different tables or passages of the source. Square brackets hold non-standard residues; d marks the D form. Peptide text beside a SMILES is read from it. * marks the point of attachment. Dolaproine = CO[C@@H]([C@@H]1CCCN1)[C@@H](C)C(=O)O; Dil = CC[C@H](C)[C@H](NC)[C@@H](CC(=O)O)OC; X1 = C[C@@H](N*)[C@@H](O)c1ccccc1; NMeV = CN[C@H](C(=O)O)C(C)C

Regarding `CC[C@H](C)[C@@H]([C@@H](CC(=O)N1CCC[C@H]1[C@H](OC)[C@@H](C)C(=O)N[C@H](C)[C@@H](O)c1ccccc1)OC)N(C)C(=O)[C@@H](NC(=O)[C@@H](NC)C(C)C)C(C)C` [MMAE, Monomethyl auristatin E] (H-[NMeV]V[Dil][Dolaproine]-X1), the figures for the “in vitro CLint (CLint, vitro)” value in series [1] (human liver hepatocyte) and in series [1] (human liver microsome) were 3 µL/min/10^6 cells and 24 µL/min/mg, respectively. Besides, the “kin, first-order influx rate of MMAE from extracellular to intracellular space” value with tumor cells was 0.185 h⁻¹. The “substrate of P-glycoprotein” value with P-glycoprotein is “substrate”. Moreover, in series [2] (rats, single dose), the “dose that induced mortality” value was over 0.116 mg/kg. Moreover, in series [2] (rats), the “single-dose no-observed-adverse-effect level (NOAEL)” value is given as 0.01 mg/kg. Moreover, the “contribution of free MMAE to tissue total MMAE exposure following ADC administration” value in series [2] (ref in-house data) is under 20%. In addition, the blood-to-plasma ratio in series [3] is listed as 2.

The values are drawn from PMC8004929, “Whole-Body Pharmacokinetics and Physiologically Based Pharmacokinetic Model for Monomethyl Auristatin E (MMAE)” (Journal of Clinical Medicine, 2021).
